One test addresses T1, recombinant human CK2 (Homo sapiens, UniProt P68400).
T1 construct: purchased Upstate
The experiment in a line: CK2 assay, cell-free, 33P-ATP filter plate. The test is classed as biochemical. As for the experimental part: Modulatory activity of compounds described herein was assessed in vitro in cell-free CK2 assays by the following method.
Test compounds in aqueous solution were added at a volume of 10 microliters, to a reaction mixture comprising 10 microliters Assay Dilution Buffer (ADB; 20 mM MOPS, pH 7.2, 25 mM beta-glycerolphosphate, 5 mM EGTA, 1 mM sodium orthovanadate and 1 mM dithiothreitol), 10 microliters of substrate peptide (RRRDDDSDDD SEQ ID NO.: 4, dissolved in ADB at a concentration of 1 mM), 10 microliters of recombinant human CK2 (25 ng dissolved in ADB; Upstate). Reactions were initiated by the addition of 10 microliters of ATP Solution (90% 75 mM MgCl2, 75 micromolar ATP dissolved in ADB; 10% [γ-^33P]ATP (stock 1 mCi/100 μl; 3000 Ci/mmol (Perkin Elmer) and maintained for 10 minutes at 30 degrees C. The reactions were quenched with 100 microliters of 0.75% phosphoric acid, then transferred to and filtered through a phosphocellulose filter plate (Millipore). After washing each well 5 times with 0.75% phosphoric acid, the plate was dried under vacuum for 5 min and, following the addition of 15 ul of scintillation fluid to each well, the residual radioactivity was measured using a Wallac luminescence counter.

The next test has as its target recombinant human PIM2 (Homo sapiens, UniProt Q9P1W9). The experiment in a line: PIM-2 kinase assay, 33P-ATP filter plate. The test is classed as biochemical. Conditions: PIM2, 5 μM ATP; read-out: PIM2 IC50 (printed in the PIM1: IC50 (μM) column). As for the experimental part:
Test compounds dissolved and diluted in DMSO (2 μl) were added to a reaction mixture comprising 10 μl of 5× Reaction Buffer (40 mM MOPS pH 7.0, 5 mM EDTA), 10 μl of recombinant human PIM2 solution (4 ng PIM-2 dissolved in dilution buffer (20 mM MOPS pH 7.0; EDTA 1 mM; 5% Glycerol; 0.01% Brij 35; […]; […] 2-mercaptoethanol; 1 mg/ml BSA)) and 8 ul of water. Reactions were initiated by the addition of 10 ul of ATP Solution ([…] (15 mM MgCl2; 75 uM ATP) 1% ([γ-33P]ATP: Stock 1 mCi/100 μl; 3000 Ci/mmol (Perkin Elmer)) and 10 ul of substrate peptide solution (RSRSSYPAGT SEQ ID NO.: 6, dissolved in water at a concentration of 1 mM), Reactions were maintained for 10 min at 30° C. The reactions were quenched with 100 ul of 0.75% Phosphoric acid, then transferred to and filtered through a Phosphocellulose filter plate (Millipore, MSPH-N6B-50). After washing each well 4 times with 0.75% Phosphoric acid, scintillation fluid (20 uL) was added to each well and the residual radioactivity was measured using a Wallac luminescence counter.

The structures appear in SMILES notation.

Chain of recombinant human PIM2 (Q9P1W9 whole entry): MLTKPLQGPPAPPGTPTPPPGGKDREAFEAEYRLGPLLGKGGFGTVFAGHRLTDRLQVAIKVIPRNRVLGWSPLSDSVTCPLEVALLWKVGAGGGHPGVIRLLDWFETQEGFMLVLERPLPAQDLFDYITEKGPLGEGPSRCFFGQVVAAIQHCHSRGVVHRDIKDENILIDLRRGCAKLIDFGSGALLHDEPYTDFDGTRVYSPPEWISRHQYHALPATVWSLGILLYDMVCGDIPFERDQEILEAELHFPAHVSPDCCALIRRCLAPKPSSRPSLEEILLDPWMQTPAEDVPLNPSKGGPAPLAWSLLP
T1 sequence (P68400 whole entry): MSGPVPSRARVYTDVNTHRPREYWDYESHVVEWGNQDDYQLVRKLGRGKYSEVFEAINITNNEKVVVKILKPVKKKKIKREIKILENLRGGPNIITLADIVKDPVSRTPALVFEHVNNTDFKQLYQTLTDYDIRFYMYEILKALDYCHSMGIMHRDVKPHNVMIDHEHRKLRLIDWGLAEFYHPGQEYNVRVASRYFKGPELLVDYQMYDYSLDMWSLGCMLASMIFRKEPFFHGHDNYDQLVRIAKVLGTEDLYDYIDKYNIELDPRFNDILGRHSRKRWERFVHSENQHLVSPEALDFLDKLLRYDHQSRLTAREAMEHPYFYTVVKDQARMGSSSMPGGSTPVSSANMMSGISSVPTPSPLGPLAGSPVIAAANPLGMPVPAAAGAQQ
T1 sequence (P67870 whole entry partner): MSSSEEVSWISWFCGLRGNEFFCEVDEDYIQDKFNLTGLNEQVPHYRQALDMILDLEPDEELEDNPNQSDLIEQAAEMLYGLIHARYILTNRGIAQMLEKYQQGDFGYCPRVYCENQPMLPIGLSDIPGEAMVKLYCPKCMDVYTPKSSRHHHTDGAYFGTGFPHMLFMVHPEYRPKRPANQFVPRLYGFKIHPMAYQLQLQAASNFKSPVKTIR

Turning to `O=C1NC(=O)/C(=C/c2cnn3ccc(-c4ccc(C(=O)NCC5CC5)s4)nc23)N1`, the results for the IC50 on recombinant human CK2 and at recombinant human PIM2 were less than 100 nM and 0.58 µM, respectively.

Regarding `CCOCCNC(=O)c1ccc(-c2ccn3ncc(/C=C4\NC(=O)NC4=O)c3n2)s1`, the results for the IC50 at recombinant human CK2 and on recombinant human PIM2 were less than 100 nM and 1.06 µM, respectively.

Regarding `CC(O)CNC(=O)c1ccc(-c2ccn3ncc(/C=C4\NC(=O)NC4=O)c3n2)s1` (stereo not drawn), the values for the half-inhibitory concentration (IC50) at recombinant human CK2 and at recombinant human PIM2 were less than 100 nM and 0.54 µM, respectively.

The values above are taken from patent US8367681B2, “Pyrazolopyrimidines and related heterocycles as kinase inhibitors” (Cylene Pharmaceuticals, Inc., priority 2009, dated 2013).
